Results from PubChem BioAssay (NCI).
“And” between values parts separate entries of the source, which are not always exact repeats. Identical values can stand only once.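 Briefly, cells in 96-well plates were exposed to five compound concentrations for 48 h, and endpoints were estimated by linear interpolation. GI50 is the concentration that inhibits growth by half. TGI denotes the concentration required for complete inhibition of growth.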

Key:
Test in all cases: NCI anticancer screen, dose series, 48 h
COLO 205 colon = system: COLO 205 colon
HCC-2998 colon = system: HCC-2998 colon
HT29 colon = system: HT29 colon
NCI-H226 lung = system: NCI-H226 lung
SF-539 CNS = system: SF-539 CNS
SK-OV-3 ovarian = system: SK-OV-3 ovarian
SW-620 colon = system: SW-620 colon
ACHN renal = system: ACHN renal
RPMI-8226 leukemia = system: RPMI-8226 leukemia
SNB-75 CNS = system: SNB-75 CNS

SMILES | TGI (COLO 205 colon) [µM] | TGI (HCC-2998 colon) [µM] | TGI (HT29 colon) [µM] | TGI (NCI-H226 lung) [µM] | TGI (SF-539 CNS) [µM] | TGI (SK-OV-3 ovarian) [µM] | TGI (SW-620 colon) [µM] | TGI (ACHN renal) [µM] | TGI (RPMI-8226 leukemia) [µM] | TGI (SNB-75 CNS) [µM] | GI50 (RPMI-8226 leukemia) | GI50 (SNB-75 CNS)
NCC(=O)N[C@H]1c2ccsc2/C(=N/O)[C@H]1O | > 100 | > 100 | > 100 | > 100 | > 100 | > 100 | > 100 | – | – | – | – | –
CC(Nc1cccc(Cl)c1)c1ccncc1 (stereo not drawn) | > 100 | – | > 100 | > 100 | > 100 | > 100 | > 100 | > 100 | > 100 | > 100 | – | –
Cn1c2ccccc2n2c(=O)c(-c3ccc(Cl)cc3)nnc12 | > 100 | > 100 | > 100 | > 100 | > 100 | – | > 100 | > 100 | – | > 100 | – | –
O=C(O)CSC1=NCCN1 | > 100 | – | > 100 | – | > 100 | > 100 | > 100 | > 100 | > 100 | > 100 | – | –
c1ccc(C/C(=N\Nc2nc3ccccc3[nH]2)c2ccccn2)cc1 | – | 30.9 | 5.23 | 0.295 | 0.741 | 0.413 | 15.1 | 3.06 | 0.131 | – | – | –
CCCCOC(=O)Nc1ccc(S(=O)(=O)Nc2c(Cl)cccc2Cl)cc1 | 34.3 | 43.4 | 32 | – | 80 | 75.3 | 90.1 | > 100 | 41.5 | – | – | –
C[N+](C)(N)Cc1nc(-c2ccc(Cl)cc2)no1 | > 100 | – | > 100 | > 100 | > 100 | > 100 | > 100 | > 100 | > 100 | > 100 | – | –
COC(=O)C12CCCN1CCC2 | > 100 | > 100 | > 100 | > 100 | – | > 100 | > 100 | > 100 | – | > 100 | – | –
CC(C)(C)OC(=O)C1C(=O)NC(=O)CC1C(OCc1ccccc1)C(OCc1ccccc1)C(COCc1ccccc1)OCc1ccccc1 (stereo not drawn) | > 100 | > 100 | > 75 | > 100 | > 100 | – | > 100 | > 100 | > 100 | > 100 | 78.7 µM and 23 µM | 26 µM and > 7.5 µM
CCOC(=O)CCCN | > 100 | > 100 | > 100 | > 100 | – | > 100 | > 100 | > 100 | > 100 | > 100 | – | –
COc1nc2ncc([C@@H](OC(C)=O)[C@@H](COC(C)=O)OC(C)=O)nc2c(=O)n1C | > 100 | – | > 100 | > 100 | > 100 | > 100 | > 100 | > 100 | > 100 | > 100 | – | –
Cc1ccc2[nH]c3c(c2c1)C1CCC(C(C)(C)C)CC1C1C(=O)N(c2ccc(Oc4ccccc4)cc2)C(=O)C31 (stereo not drawn) | > 100 | > 100 | > 100 | > 86.9 | – | 94.7 | > 100 | > 100 | 40.5 | 9.08 | – | –
COc1cc2c(c3nc4ccccc4nc13)-c1ccc(SC)c(=O)cc1[C@@H](NC(C)=O)CC2 | 0.419 | – | – | – | 0.0603 | > 100 | > 100 | > 100 | > 100 | > 100 | – | –
COC1CCC(O)C(CO)O1 (stereo not drawn) | – | > 100 | > 100 | – | > 100 | > 100 | > 100 | > 100 | – | > 100 | – | –
CN(C(=O)Cc1cc(Cl)c(Cl)cc1NC(=O)CCCN)[C@H]1CCCC[C@@H]1N1CCCC1 | 35 | 37.1 | 47.7 | > 100 | – | > 100 | 91.2 | > 100 | > 100 | – | – | –
C[C@]12C(=O)OC[C@H](c3ccccc3)N1C(=O)N(Cc1ccccc1)[C@@H]2CO | > 100 | > 100 | > 100 | > 100 | > 100 | > 100 | > 100 | > 100 | – | > 100 | – | –
O=C(CN1CCCCC1)c1ccc2[nH]c(=O)oc2c1 | > 100 | – | > 100 | > 100 | > 100 | > 100 | > 100 | > 100 | > 100 | 87.8 | – | –
